Values quoted from earlier work in patent US20220401378A1, “COMPOSITIONS COMPRISING FUNCTIONAL FRAGRANCES AND CANNABIS-DERIVED COMPOUNDS” (THIS WORKS PRODUCTS LIMITED, priority 2020, published 2022).

Test system: anxiety

SMILES	effectiveness in reducing anxiety compared with trazodone hydrochloride
C=C[C@](C)(O)CCC=C(C)C [R-(−)-linalool]	as effective as the trazodone hydrochloride in reducing anxiety
C=C[C@@](C)(O)CCC=C(C)C [S-(+)-linalool]	as effective as the trazodone hydrochloride in reducing anxiety
